US12459899B2, “Isoquinolinone derivatives, method for preparing the same, and pharmaceutical composition for preventing or treating poly(ADP-ribose) polymerase-1-related diseases, comprising the same as active ingredient” (DIGMBIO. INC., priority 2019, dated 2025)

Target: PARP-1 (poly[ADP-ribose] polymerase 1) enzyme (Homo sapiens (Human), UniProt P09874)
Assay: PARP-1 (poly[ADP-ribose] polymerase 1) enzyme inhibitory ability, Trevigen assay kit
Format: biochemical
Conditions: 1 nM compound; read-out: PAR P-1 Inhibitory ability at 1 nM
In short: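 After the 1 hour PARP reaction, wells were washed with PBS containing 0.1% triton X-100 and then PBS. Strep-HRP (50 μL) was bound for 1 hour, wells washed again, and 50 μL of TACS-sapphire substrate developed 15 minutes in the dark. Reactions were stopped with 50 μL of 5% phosphoric acid and absorbance read at 450 nm on a Victor3 reader.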

Sequence of PARP-1 (poly[ADP-ribose] polymerase 1) enzyme (P09874 whole entry): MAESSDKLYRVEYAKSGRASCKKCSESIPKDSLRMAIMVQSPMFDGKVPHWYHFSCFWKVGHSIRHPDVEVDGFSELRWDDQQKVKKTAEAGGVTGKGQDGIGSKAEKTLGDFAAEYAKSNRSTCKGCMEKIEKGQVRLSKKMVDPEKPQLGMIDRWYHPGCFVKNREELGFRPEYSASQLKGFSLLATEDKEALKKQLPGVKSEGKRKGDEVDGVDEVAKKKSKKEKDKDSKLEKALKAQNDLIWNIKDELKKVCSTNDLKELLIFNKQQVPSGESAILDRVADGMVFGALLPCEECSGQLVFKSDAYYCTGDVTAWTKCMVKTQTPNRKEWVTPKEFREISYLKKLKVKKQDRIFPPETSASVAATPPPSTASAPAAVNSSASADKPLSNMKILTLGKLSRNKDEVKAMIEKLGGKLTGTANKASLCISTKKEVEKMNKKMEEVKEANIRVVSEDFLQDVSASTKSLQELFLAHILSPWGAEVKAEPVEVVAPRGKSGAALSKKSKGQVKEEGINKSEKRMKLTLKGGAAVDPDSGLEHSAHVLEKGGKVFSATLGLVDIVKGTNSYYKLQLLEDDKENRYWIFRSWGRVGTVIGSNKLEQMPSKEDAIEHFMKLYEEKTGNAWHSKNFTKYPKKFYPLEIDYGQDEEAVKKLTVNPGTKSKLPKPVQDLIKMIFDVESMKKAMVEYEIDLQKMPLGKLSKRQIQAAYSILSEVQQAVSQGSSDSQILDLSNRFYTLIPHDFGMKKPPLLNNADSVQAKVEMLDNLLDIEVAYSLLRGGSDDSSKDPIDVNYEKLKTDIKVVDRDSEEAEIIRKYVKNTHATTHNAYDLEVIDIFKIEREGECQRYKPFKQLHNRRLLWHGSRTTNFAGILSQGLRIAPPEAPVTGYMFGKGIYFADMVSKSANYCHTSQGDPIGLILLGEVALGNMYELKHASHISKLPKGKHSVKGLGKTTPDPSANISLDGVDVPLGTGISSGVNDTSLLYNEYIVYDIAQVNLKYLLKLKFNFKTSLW

First: N#Cc1ccc(N2CCN(C(=O)CCc3cc4ncccc4c(=O)[nH]3)CC2)cc1 [Example 241, 4-(4-(3-(5-oxo-5,6-dihydro-1,6-naphthyridin-7-yl)propanoyl)piperazin-1-yl)benzonitrile]
Second: N#Cc1ccc(N2CCN(C(=O)CCc3cc4ncccc4c(=O)[nH]3)CC2)nc1 [Example 242, 6-(4-(3-(5-oxo-5,6-dihydro-1,6-naphthyridin-7-yl)propanoyl)piperazin-1-yl)nicotinonitrile]
The inhibition at 0.001 µM of the first is higher: 50 to 80% for the first, under 50% for the second.

`N#Cc1ccc(N2CCN(C(=O)CCc3cc4ncccc4c(=O)[nH]3)CC2)cn1` [Example 243, 5-(4-(3-(5-oxo-5,6-dihydro-1,6-naphthyridin-7-yl)propanoyl)piperazin-1-yl)picolinonitrile] and `N#Cc1ccc(NC2CCN(CCCc3cc4ncccc4c(=O)[nH]3)CC2)cn1` [Example 251, 5-((1-(3-(5-oxo-5,6-dihydro-1,6-naphthyridin-7-yl)propyl)piperidin-4-yl)amino)picolinonitrile] cannot be ordered by inhibition at 0.001 µM: under 50% for the first, under 50% for the second.

`O=C(CCc1cc2ncccc2c(=O)[nH]1)N1CC=C(c2ccc(F)cc2)CC1` [Example 244, 7-(3-(4-(4-fluorophenyl)-3,6-dihydropyridin-1(2H)-yl)-3-oxopropyl)-1,6-naphthyridin-5(6H)-one] and `N#Cc1ccc(C2=CCN(C(=O)CCc3cc4ncccc4c(=O)[nH]3)CC2)cc1` [Example 245, 4-(1-(3-(5-oxo-5,6-dihydro-1,6-naphthyridin-7-yl)propanoyl)-1,2,3,6-tetrahydropyridin-4-yl)benzonitrile] cannot be ordered by inhibition at 0.001 µM: under 50% for the first, under 50% for the second.

`N#Cc1ccc(N2CC3CCC(C2)N3C(=O)CCc2cc3ncccc3c(=O)[nH]2)cc1` [Example 246, 4-(8-(3-(5-oxo-5,6-dihydro-1,6-naphthyridin-7-yl)propanoyl)-3,8-diazabicyclo[3.2.1]octan-3-yl)benzonitrile] and `N#Cc1ccc(NC2CCN(CCCc3cc4ncccc4c(=O)[nH]3)CC2)cc1` [Example 250, 4-((1-(3-(5-oxo-5,6-dihydro-1,6-naphthyridin-7-yl)propyl)piperidin-4-yl)amino)benzonitrile] cannot be ordered by inhibition at 0.001 µM: under 50% for the first, under 50% for the second.

First: N#Cc1ccc(NC2CCN(CCCc3cc4cccc(F)c4c(=O)[nH]3)CC2)cc1 [Example 247, 4-((1-(3-(8-fluoro-1-oxo-1,2-dihydroisoquinolin-3-yl)propyl)piperidin-4-yl)amino)benzonitrile]
Second: N#Cc1ccc(NC2CCN(CCCc3cc4cccc(F)c4c(=O)[nH]3)CC2)cn1 [Example 248, 5-((1-(3-(8-fluoro-1-oxo-1,2-dihydroisoquinolin-3-yl)propyl)piperidin-4-yl)amino)picolinonitrile]
The inhibition at 0.001 µM of the first is higher: 50 to 80% for the first, under 50% for the second.

`N#Cc1ccc(NC2CCN(CCCc3cc4ccc(F)cc4c(=O)[nH]3)CC2)cc1` [Example 249, 4-((1-(3-(7-fluoro-1-oxo-1,2-dihydroisoquinolin-3-yl)propyl)piperidin-4-yl)amino)benzonitrile] and `N#Cc1ccc(OC2CCN(CCCc3cc4cccc(F)c4c(=O)[nH]3)CC2)cc1` [Example 254, 4-((1-(3-(8-fluoro-1-oxo-1,2-dihydroisoquinolin-3-yl)propyl)piperidin-4-yl)oxy)benzonitrile] cannot be ordered by inhibition at 0.001 µM: under 50% for the first, under 50% for the second.

`COC(=O)c1ccc(NC2CCN(CCCc3cc4ncccc4c(=O)[nH]3)CC2)cc1` [Example 252, methyl 4-((1-(3-(5-oxo-5,6-dihydro-1,6-naphthyridin-7-yl)propyl)piperidin-4-yl)amino)benzoate] and `O=c1[nH]c(CCCN2CCC(Nc3ccc(C(F)(F)F)cc3)CC2)cc2ncccc12` [Example 253, 7-(3-(4-((4-(trifluoromethyl)phenyl)amino)piperidin-1-yl)propyl)-1,6-naphthyridin-5(6H)-one] cannot be ordered by inhibition at 0.001 µM: under 50% for the first, under 50% for the second.

`N#Cc1ccc(OC2CCN(C(=O)CCc3cc4cccc(F)c4c(=O)[nH]3)CC2)cc1` [Example 255, 4-((1-(3-(8-fluoro-1-oxo-1,2-dihydroisoquinolin-3-yl)propanoyl)piperidin-4-yl)oxy)benzonitrile] and `Cc1ccc(F)c2c(=O)[nH]c(CCC(=O)N3CCC(Oc4ccc(C#N)cc4)CC3)cc12` [Example 261, 4-((1-(3-(8-fluoro-5-methyl-1-oxo-1,2-dihydroisoquinolin-3-yl)propanoyl)piperidin-4-yl)oxy)benzonitrile] cannot be ordered by inhibition at 0.001 µM: under 50% for the first, under 50% for the second.

`N#Cc1ccc(NC2CCN(C(=O)CCc3cc4cccc(F)c4c(=O)[nH]3)CC2)cc1` [Example 256, 4-((1-(3-(8-fluoro-1-oxo-1,2-dihydroisoquinolin-3-yl)propanoyl)piperidin-4-yl)amino)benzonitrile] and `Cc1ccc(F)c2c(=O)[nH]c(CCC(=O)N3CCC(Nc4ccc(C#N)cc4)CC3)cc12` [Example 259, 4-((1-(3-(8-fluoro-5-methyl-1-oxo-1,2-dihydroisoquinolin-3-yl)propanoyl)piperidin-4-yl)amino)benzonitrile] cannot be ordered by inhibition at 0.001 µM: under 50% for the first, under 50% for the second.

`CN(c1ccc(C#N)cc1)C1CCN(C(=O)CCc2cc3cccc(F)c3c(=O)[nH]2)CC1` [Example 257, 4-((1-(3-(8-fluoro-1-oxo-1,2-dihydroisoquinolin-3-yl)propanoyl)piperidin-4-yl)(methyl)amino)benzonitrile] and `N#Cc1ccc(NC2CCN(C(=O)CCc3cc4cccc(F)c4c(=O)[nH]3)CC2)cn1` [Example 258, 5-((1-(3-(8-fluoro-1-oxo-1,2-dihydroisoquinolin-3-yl)propanoyl)piperidin-4-yl)amino)picolinonitrile] cannot be ordered by inhibition at 0.001 µM: under 50% for the first, under 50% for the second.

`Cc1cc(F)cc2c(=O)[nH]c(CCC(=O)N3CCC(Nc4ccc(C#N)cc4)CC3)cc12` [Example 260, 4-((1-(3-(7-fluoro-5-methyl-1-oxo-1,2-dihydroisoquinolin-3-yl)propanoyl)piperidin-4-yl)amino)benzonitrile] and `Cc1cc(F)cc2c(=O)[nH]c(CCC(=O)N3CCC(Nc4ccc(Cl)cc4)CC3)cc12` [Example 263, 3-(3-(4-((4-chlorophenyl)amino)piperidin-1-yl)-3-oxopropyl)-7-fluoro-5-methylisoquinolin-1(2H)-one] cannot be ordered by inhibition at 0.001 µM: under 50% for the first, under 50% for the second.

`Cc1cc(F)cc2c(=O)[nH]c(CCC(=O)N3CCC(Oc4ccc(C#N)cc4)CC3)cc12` [Example 262, 4-((1-(3-(7-fluoro-5-methyl-1-oxo-1,2-dihydroisoquinolin-3-yl)propanoyl)piperidin-4-yl)oxy)benzonitrile] and `COC(=O)c1ccc(NC2CCN(C(=O)CCc3cc4c(C)cc(F)cc4c(=O)[nH]3)CC2)cc1` [Example 267, methyl 4-((1-(3-(7-fluoro-5-methyl-1-oxo-1,2-dihydroisoquinolin-3-yl)propanoyl)piperidin-4-yl)amino)benzoate] cannot be ordered by inhibition at 0.001 µM: under 50% for the first, under 50% for the second.

`Cc1ccc(F)c2c(=O)[nH]c(CCC(=O)N3CCC(Nc4ccc(Cl)cc4)CC3)cc12` [Example 264, 3-(3-(4-((4-chlorophenyl)amino)piperidin-1-yl)-3-oxopropyl)-8-fluoro-5-methylisoquinolin-1(2H)-one] and `Cc1ccc(F)c2c(=O)[nH]c(CCC(=O)N3CCC(Nc4ccc(C(F)(F)F)cc4)CC3)cc12` [Example 266, 8-fluoro-5-methyl-3-(3-oxo-3-(4-((4-(trifluoromethyl)phenyl)amino)piperidin-1-yl)propyl)isoquinolin-1(2H)-one] cannot be ordered by inhibition at 0.001 µM: under 50% for the first, under 50% for the second.

`Cc1cc(F)cc2c(=O)[nH]c(CCC(=O)N3CCC(Nc4ccc(C(F)(F)F)cc4)CC3)cc12` [Example 265, 7-fluoro-5-methyl-3-(3-oxo-3-(4-((4-(trifluoromethyl)phenyl)amino)piperidin-1-yl)propyl)isoquinolin-1(2H)-one] and `COC(=O)c1ccc(NC2CCN(C(=O)CCc3cc4c(C)ccc(F)c4c(=O)[nH]3)CC2)cc1` [Example 268, methyl 4-((1-(3-(8-fluoro-5-methyl-1-oxo-1,2-dihydroisoquinolin-3-yl)propanoyl)piperidin-4-yl)amino)benzoate] cannot be ordered by inhibition at 0.001 µM: under 50% for the first, under 50% for the second.

`Cc1ccc(F)c2c(=O)[nH]c(CCC(=O)N3C4CCC3CC(O)C4)cc12` (centres unmarked) [Example 269, 8-fluoro-3-(3-(3-hydroxy-8-azabicyclo[3.2.1]octan-8-yl)-3-oxopropyl)-5-methylisoquinolin-1(2H)-one] and `Cc1ccc(F)c2c(=O)[nH]c(CCC(=O)N3CCC(O)CC3)cc12` [Example 270, 8-fluoro-3-(3-(4-hydroxypiperidin-1-yl)-3-oxopropyl)-5-methylisoquinolin-1(2H)-one] cannot be ordered by inhibition at 0.001 µM: under 50% for the first, under 50% for the second.

Compared with `O=c1[nH]c(CCCN2C3CCC2CC(O)C3)cc2ncccc12` (centres unmarked) [Example 271, 7-(3-(3-hydroxy-8-azabicyclo[3.2.1]octan-8-yl)propyl)-1,6-naphthyridin-5(6H)-one], `O=c1[nH]c(CCCN2C3CCC2CC(O)C3)cc2cccc(F)c12` (centres unmarked) [Example 272, 8-fluoro-3-(3-(3-hydroxy-8-azabicyclo[3.2.1]octan-8-yl)propyl)isoquinolin-1(2H)-one] is higher in inhibition at 0.001 µM: under 50% for the first, 50 to 80% for the second.

`N#Cc1ccc(OC2CC3CCC(C2)N3CCCc2cc3cccc(F)c3c(=O)[nH]2)cc1` (centres unmarked) [Example 273, 4-((8-(3-(8-fluoro-1-oxo-1,2-dihydroisoquinolin-3-yl)propyl)-8-azabicyclo[3.2.1]octan-3-yl)oxy)benzonitrile] and `N#Cc1ccc(OC2CC3CCC(C2)N3C(=O)CCc2cc3cccc(F)c3c(=O)[nH]2)cc1` (centres unmarked) [Example 274, 4-((8-(3-(8-fluoro-1-oxo-1,2-dihydroisoquinolin-3-yl)propanoyl)-8-azabicyclo[3.2.1]octan-3-yl)oxy)benzonitrile] cannot be ordered by inhibition at 0.001 µM: under 50% for the first, under 50% for the second.

Same assay, conditions: PARP-1 enzyme activity

In order of rising IC50:
1. N#Cc1ccc(N2CCN(C(=O)CCc3cc4ncccc4c(=O)[nH]3)CC2)nc1 [Example 242, 6-(4-(3-(5-oxo-5,6-dihydro-1,6-naphthyridin-7-yl)propanoyl)piperazin-1-yl)nicotinonitrile]  3.18 nM
2. O=c1[nH]c(CCCN2C3CCC2CC(O)C3)cc2cccc(F)c12 (centres unmarked) [Example 272, 8-fluoro-3-(3-(3-hydroxy-8-azabicyclo[3.2.1]octan-8-yl)propyl)isoquinolin-1(2H)-one]  3.27 nM
3. N#Cc1ccc(N2CCN(C(=O)CCc3cc4ncccc4c(=O)[nH]3)CC2)cc1 [Example 241, 4-(4-(3-(5-oxo-5,6-dihydro-1,6-naphthyridin-7-yl)propanoyl)piperazin-1-yl)benzonitrile]  4.92 nM
4. COC(=O)c1ccc(NC2CCN(C(=O)CCc3cc4c(C)ccc(F)c4c(=O)[nH]3)CC2)cc1 [Example 268, methyl 4-((1-(3-(8-fluoro-5-methyl-1-oxo-1,2-dihydroisoquinolin-3-yl)propanoyl)piperidin-4-yl)amino)benzoate]  8.59 nM
